Data published in ChEMBL document CHEMBL4482319, “Targeting cyb5r3” (2016).
The source made the active and inactive calls. The rule behind the calls is not given here.

What was measured:
[1] = target: T1, NADH-cytochrome b5 reductase (Homo sapiens) (UniProt P00387); assay: Inhibition of Cyb5R3 (unknown origin) expressed in HEK293 cells at 21.86 uM incubated for 24 hrs in presence of potassium ferricyanide and NADH by spectrophotometric assay; type: cell-based
T1 sequence (whole entry): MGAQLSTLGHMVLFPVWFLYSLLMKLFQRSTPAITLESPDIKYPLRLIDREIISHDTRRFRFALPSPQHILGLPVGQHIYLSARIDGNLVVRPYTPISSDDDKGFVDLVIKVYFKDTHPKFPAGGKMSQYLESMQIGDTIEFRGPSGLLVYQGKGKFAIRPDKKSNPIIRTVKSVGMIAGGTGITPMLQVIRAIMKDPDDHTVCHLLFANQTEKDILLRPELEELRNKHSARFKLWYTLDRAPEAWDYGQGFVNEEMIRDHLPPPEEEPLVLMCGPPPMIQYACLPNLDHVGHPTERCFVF

Homo sapiens = species on record: Homo sapiens; assay: Reduction in systolic blood pressure in patient with acute decompensated heart failure during phase II clinical trial; type: functional
[2] = target: T2, NADH-cytochrome b5 reductase 3 (Rattus norvegicus) (UniProt P20070); assay: Inhibition of Cyb5R3 in rat aortic VSMs assessed as reduction in decrease in basal cGMP levels
T2 sequence (whole entry): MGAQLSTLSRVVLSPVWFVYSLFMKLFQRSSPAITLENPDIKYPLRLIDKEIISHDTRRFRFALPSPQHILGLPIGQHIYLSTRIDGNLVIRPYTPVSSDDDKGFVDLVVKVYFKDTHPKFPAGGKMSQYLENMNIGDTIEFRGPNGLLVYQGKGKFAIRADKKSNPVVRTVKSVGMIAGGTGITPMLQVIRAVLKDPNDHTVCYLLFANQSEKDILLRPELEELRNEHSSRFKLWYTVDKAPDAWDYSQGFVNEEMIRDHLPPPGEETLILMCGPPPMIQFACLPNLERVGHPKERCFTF

Mus musculus [3] = assay: Induction of hypertension in C57B1/6 mouse assessed as increase in systolic pressure at 10 mg/kg/day dosed via osmotic mini pumps for 14 days; type: functional, organism-based
[4] = target: T2, NADH-cytochrome b5 reductase 3 (Rattus norvegicus); assay: Inhibition of Cyb5R3 in rat aortic VSMs assessed as reduction in decrease in sGC protein by Western blot analysis; settings: concentration not given here
[5] = target: T2, NADH-cytochrome b5 reductase 3 (Rattus norvegicus); assay: Inhibition of Cyb5R3 in rat thoracodorsal arteries assessed as inhibition of DETA NONOate-induced response incubated for 24 hrs in presence of sGC activator Bay 58-2667 by pressure myography
[6] = target: T2, NADH-cytochrome b5 reductase 3 (Rattus norvegicus); assay: Inhibition of Cyb5R3 in DETA NONOate-stimulated rat aortic VSMs assessed as reduction in NO-induced cGMP production in presence of sGC activator Bay 58-2667
Mus musculus [7] = assay: Induction of hypertension in C57B1/6 mouse assessed as increase in diastolic pressure at 10 mg/kg/day dosed via osmotic mini pumps for 14 days; type: functional, organism-based
Mus musculus [8] = assay: Induction of hypertension in C57B1/6 mouse assessed as increase in mean arterial pressure at 10 mg/kg/day dosed via osmotic mini pumps for 14 days; type: functional, organism-based
[9] = target: T2, NADH-cytochrome b5 reductase 3 (Rattus norvegicus); assay: Inhibition of Cyb5R3 in rat thoracodorsal arteries assessed as inhibition of DETA NONOate-induced response incubated for 24 hrs by pressure myography

Oc1cc(CSc2ccccc2)nc(S)n1
inhibition [1]: > 80%

O=C(O)CCCCN(CCc1ccccc1OCc1ccc(CCc2ccccc2)cc1)Cc1ccc(C(=O)O)cc1
Activity (Homo sapiens): 16.6 mmHg

O=c1cc(CS[C@@H]2Nc3ccccc3O2)[nH]c(=S)[nH]1
inhibition [2]: Active | Activity (Mus musculus [3]): Active | inhibition [4]: < 75% | inhibition [5]: inactive | inhibition [6]: inactive | Activity (Mus musculus [7]): Active | Activity (Mus musculus [8]): Active | inhibition [9]: Active
